# According to paper PMC9927415, “Tyrosine Kinase Inhibitors Display Potent Activity against Cryptosporidium parvum” (Microbiology Spectrum, 2022):
# Tests used:
# Experiment in all cases: KINOMEscan competitive binding
# [1] = biological target: T1, PDPK1 (Homo sapiens, UniProt O15530); conditions: n=1, read-out: Percent inhibition, PDPK1
# T1 construct: purchased DiscoverX (KINOMEscan)
# T1 sequence (O15530 1-556): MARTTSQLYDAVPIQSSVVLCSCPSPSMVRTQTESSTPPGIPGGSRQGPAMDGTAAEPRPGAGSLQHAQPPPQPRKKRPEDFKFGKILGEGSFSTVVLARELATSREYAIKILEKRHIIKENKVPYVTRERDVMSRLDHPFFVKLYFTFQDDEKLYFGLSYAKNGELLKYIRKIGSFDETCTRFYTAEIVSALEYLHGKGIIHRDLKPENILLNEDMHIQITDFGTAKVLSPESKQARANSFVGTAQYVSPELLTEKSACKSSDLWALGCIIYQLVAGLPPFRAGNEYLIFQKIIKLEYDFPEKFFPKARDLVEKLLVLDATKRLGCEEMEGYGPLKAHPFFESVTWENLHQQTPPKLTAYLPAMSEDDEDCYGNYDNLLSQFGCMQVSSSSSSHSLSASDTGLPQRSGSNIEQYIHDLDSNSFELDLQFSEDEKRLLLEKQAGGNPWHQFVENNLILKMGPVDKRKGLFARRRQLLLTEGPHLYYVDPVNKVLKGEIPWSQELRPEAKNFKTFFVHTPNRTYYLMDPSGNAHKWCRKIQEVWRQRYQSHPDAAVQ
# [2] = biological target: T2, TNNI3K (Homo sapiens, UniProt Q59H18); conditions: n=1, read-out: Percent inhibition, TNNI3K
# T2 construct: purchased DiscoverX (KINOMEscan)
# T2 sequence (Q59H18 1-835): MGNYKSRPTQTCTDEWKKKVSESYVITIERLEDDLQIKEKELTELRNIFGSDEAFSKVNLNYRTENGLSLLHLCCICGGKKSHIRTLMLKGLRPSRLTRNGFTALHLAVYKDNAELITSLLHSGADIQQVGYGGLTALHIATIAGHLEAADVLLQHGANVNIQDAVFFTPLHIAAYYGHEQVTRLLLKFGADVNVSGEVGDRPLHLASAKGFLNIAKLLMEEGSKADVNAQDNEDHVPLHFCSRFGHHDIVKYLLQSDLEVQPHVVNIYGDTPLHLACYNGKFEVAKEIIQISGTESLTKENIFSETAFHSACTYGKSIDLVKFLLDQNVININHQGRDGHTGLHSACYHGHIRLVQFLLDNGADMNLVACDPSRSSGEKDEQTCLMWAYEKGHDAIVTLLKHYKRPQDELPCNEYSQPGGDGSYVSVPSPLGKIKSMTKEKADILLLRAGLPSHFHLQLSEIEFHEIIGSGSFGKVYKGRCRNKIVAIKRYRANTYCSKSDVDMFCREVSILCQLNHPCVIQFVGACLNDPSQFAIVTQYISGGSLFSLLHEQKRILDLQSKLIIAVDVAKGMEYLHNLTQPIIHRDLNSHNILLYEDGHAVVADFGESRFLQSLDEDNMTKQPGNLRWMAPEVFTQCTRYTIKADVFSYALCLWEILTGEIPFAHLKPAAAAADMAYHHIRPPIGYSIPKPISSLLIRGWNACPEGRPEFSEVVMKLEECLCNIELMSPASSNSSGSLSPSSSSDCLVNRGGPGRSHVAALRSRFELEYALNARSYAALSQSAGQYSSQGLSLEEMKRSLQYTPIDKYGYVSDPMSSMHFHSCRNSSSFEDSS
# [3] = biological target: T3, PLK4 (Homo sapiens, UniProt O00444); conditions: n=1, read-out: Percent inhibition, PLK4
# T3 construct: purchased DiscoverX (KINOMEscan)
# T3 sequence (O00444 1-970): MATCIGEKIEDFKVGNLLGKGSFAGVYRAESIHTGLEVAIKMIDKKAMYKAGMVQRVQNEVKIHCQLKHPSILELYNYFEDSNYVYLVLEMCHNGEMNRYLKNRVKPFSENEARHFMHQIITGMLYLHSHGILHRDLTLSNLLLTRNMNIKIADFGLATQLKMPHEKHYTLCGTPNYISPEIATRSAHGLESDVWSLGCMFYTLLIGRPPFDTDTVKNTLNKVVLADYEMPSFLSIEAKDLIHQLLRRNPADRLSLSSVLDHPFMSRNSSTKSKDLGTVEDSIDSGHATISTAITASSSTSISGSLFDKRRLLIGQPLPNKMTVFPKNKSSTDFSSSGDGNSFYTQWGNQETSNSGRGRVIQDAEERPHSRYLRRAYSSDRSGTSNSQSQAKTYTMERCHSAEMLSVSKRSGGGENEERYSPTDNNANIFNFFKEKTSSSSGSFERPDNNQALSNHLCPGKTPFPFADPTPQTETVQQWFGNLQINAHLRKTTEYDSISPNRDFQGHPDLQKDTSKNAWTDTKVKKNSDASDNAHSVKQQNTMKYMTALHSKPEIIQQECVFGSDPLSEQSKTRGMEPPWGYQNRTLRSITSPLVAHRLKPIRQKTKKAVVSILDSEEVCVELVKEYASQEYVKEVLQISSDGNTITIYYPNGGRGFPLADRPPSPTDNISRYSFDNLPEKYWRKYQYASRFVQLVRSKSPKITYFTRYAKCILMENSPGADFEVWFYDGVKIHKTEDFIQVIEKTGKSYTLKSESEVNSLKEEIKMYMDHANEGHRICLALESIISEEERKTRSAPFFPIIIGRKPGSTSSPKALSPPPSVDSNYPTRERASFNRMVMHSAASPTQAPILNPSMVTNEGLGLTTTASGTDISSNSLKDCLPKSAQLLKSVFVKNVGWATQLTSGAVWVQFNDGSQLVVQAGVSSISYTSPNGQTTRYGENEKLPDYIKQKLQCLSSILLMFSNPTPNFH
SMILES,inhibition at 10 µM [1],inhibition at 10 µM [2],inhibition at 10 µM [3]
Cc1ccc(O)cc1Nc1ccnc(Nc2cccc(C(N)=O)c2)n1 [Compound 3],0%,99.9%,95.2%
Cc1ccc(O)cc1N(C)c1ccnc(Nc2cccc(S(N)(=O)=O)c2)n1 [Compound 4],0%,100%,99.4%
CN1CCN(c2ccc(Nc3nccc(-c4cnn5ncccc45)n3)cc2C#N)CC1 [Compound 1],0%,0%,99.7%
Clc1ccc(Nc2ncc(-c3ccccc3)s2)cc1 [Compound 10],0%,86%,0%
Nc1ncc2c(-c3ccncc3)c[nH]c2n1 [Compound 11],79.6%,0%,84.4%
Fc1cccc(COc2ccc(Nc3ncnc4c3CN(CCN3CCOCC3)CC4)cc2Cl)c1 [Compound 6],0%,0%,0%
COc1ccc(Nc2nccc(-c3cnn4ncccc34)n2)cc1 [Compound 2],0%,0%,99%
C[C@@H](Oc1cc(-c2cnc3ccccn23)sc1C(N)=O)c1ccccc1Cl [Compound 8],0%,0%,76.4%
COc1cc(Nc2nccc(-c3sc(N)nc3-c3cccc(NC(=O)c4c(F)cccc4F)c3)n2)cc(OC)c1OC [Compound 7],68.3%,100%,99.8%
c1ccc(COc2cccc(-c3ccnc4[nH]ccc34)c2)cc1 [Compound 9],0%,0%,0%
